The test system of assay [1] is C2C12 cells with TNF-α induced injury. As to the kind of experiment: Protection of C2C12 cells against TNF-α induced injury (survival rate, MMP, intracellular ROS). In kind it is cell-based, mice. The conditions noted are these: pre-treated 6 h, then 10 ng/mL TNF-α 4 days. As for the experimental part:
C2C12 cells were cultured in H-DMEM medium until 80% confluence was attained. Thereafter, the cells were separated into eleven groups, wherein seven groups thereof were provided with the Cistanche tubulosa extract (CIS) solution (dissolved in DMSO) to provide final concentrations of 0, 1, 5, 10, 50, 100, 500 μg/mL, respectively, and then pre-treatment was carried out for 6 hours; the other three groups were provided with branched chain amino acids (BCAA; served as a positive control) to provide final concentrations of 0.1, 1 or 10 μg/mL respectively, and then pre-treatment was carried out for 6 hours; thereafter, the mediums of the above ten groups (seven groups provided with CIS and three groups provided with BCAA) were replaced by differentiation mediums supplemented with 2% horse serum, and TNA-α was then added into those mediums to provide a final concentration of 10 ng/mL, and then co-treated with differentiation medium for 4 days; the last group served as a control group, which was not treated with the Cistanche tubulosa extract, BCAA, or TNA-α. Finally, the survival rates, MMPs and intracellular ROSs of the C2C12 cells in each group were measured. The control group served as a basis for calculating the relative survival rates, MMPs, and intracellular ROSs of the other groups to determine the effective concentration of Cistanche tubulosa extract for providing a protective effect against the TNF-α induced muscle cell injury. The results are shown in FIG. 3 and FIG. 4 (all the data are presented as average values±SEM, n=6, analyzed with a t-test, *p<0.05, **p<0.01, ***p<0.001).
According to the results of Example 1, echinacoside (Ech), verbascoside (VB) and isoacteoside (Iso) are the main ingredients of the Cistanche tubulosa extract. To investigate whether the echinacoside, verbascoside and isoacteoside have the effect of protecting muscles, the echinacoside, verbascoside and isoacteoside (all purchased from ChromaDex company, U.S.) were dissolved in DMSO to provide a echinacoside solution, a verbascoside solution and a isoacteoside solution. C2C12 cells were cultured in H-DMEM medium until 80% confluence was attained. Thereafter, the cells were separated into eighteen groups and treated as follows: • (1) Control group: cells were cultured in H-DMEM medium for 6 hours; thereafter the medium was replaced by a differentiation medium supplemented with 2% horse serum, and the cells were cultured for 4 days. • (2) TNF-α group: cells were cultured in H-DMEM medium for 6 hours; thereafter the medium was replaced by a differentiation medium supplemented with 2% horse serum, and TNF-α was then added into the medium (the final concentration was 10 ng/mL) to carry out a co-treatment for 4 days. • (3) TNF-α+echinacoside group (6 groups): the echinacoside solution was added into H-DMEM mediums to provide final concentrations of 1, 5, 10, 50, 100, or 500 μg/mL, respectively. The cells were pre-treated with the above mediums for 6 hours. Thereafter, the mediums were replaced by differentiation mediums supplemented with 2% horse serum, and TNF-α was then added into the mediums (the final concentration was 10 ng/mL) to carry out co-treatments for 4 days. • (4) TNF-α+verbascoside group (5 groups): the verbascoside solution was added into H-DMEM mediums to provide final concentration of 1, 5, 10, 50, or 100 μg/mL, respectively. The cells were pre-treated with the above mediums for 6 hours. Thereafter, the mediums were replaced by differentiation mediums supplemented with 2% horse serum, and TNF-α was then added into the mediums (the final concentration was 10 ng/mL) to carry out co-treatments for 4 days. • (5) TNF-α+isoacteoside group (5 groups): the isoacteoside solution was added into H-DMEM mediums to provide final concentrations of 1, 5, 10, 50, or 100 μg/mL, respectively. The cells were pre-treated with the above mediums for 6 hours. […]

The test system of a further assay is C2C12 cells. As to the kind of experiment: Establishment of TNF-α induced muscle cell injury model (MMP, intracellular ROS). The conditions noted are these: 4 days, relative to 0 ng/mL group. In kind it is cell-based, mice. On the procedure:
Firstly, C2C12 cells (i.e., muscle cells of mice, purchased from ATCC) were cultured in H-DMEM medium (purchased from Sigma company) until 80% confluence was attained (i.e., the mixed cell monolayer comprises 80% of area). Thereafter, the cells were separated into four groups, and the mediums of all the groups were replaced by differentiation mediums supplemented with 2% horse serum. TNF-α (purchased from Sigma company) was then added into those mediums to provide final concentrations of 0, 2, 5, 10 ng/mL respectively. After being co-treated with the differentiation medium and TNF-α for 4 days, the mitochondrial membrane potential (MMP) and intracellular reactive oxidative stress (ROS) of the C2C12 cells were measured to serve as the index for model evaluation. Accordingly, a TNF-α induced muscle cell injury model was established. Finally, the group that was not treated with TNF-α (i.e., the concentration of TNF-α was 0 ng/mL) served as a basis for calculating the relative MMPs and intracellular ROSs of the other groups. The results are shown in FIG. 1 (all the data are presented as average values±SEM, n=6, analyzed with a t-test, *p<0.05, ***p<0.001).

As for `C[C@@H]1O[C@@H](O[C@@H]2[C@@H](O)[C@H](OCCc3ccc(O)c(O)c3)O[C@H](COC(=O)/C=C/c3ccc(O)c(O)c3)[C@H]2O)[C@H](O)[C@H](O)[C@H]1O` [isoacteoside], the “decrease in the MMP induced by TNF-α” value in assay [1] (100 μg/mL) is recorded as “significantly ameliorated”. Besides, the survival rate result in assay [1] (5 to 100 μg/mL) is reported as “increased”. Besides, in assay [1] (10 to 100 μg/mL), the “intracellular ROS” value is recorded as “significantly decreased”.
As for `C[C@@H]1O[C@@H](O[C@@H]2[C@@H](O)[C@H](OCCc3ccc(O)c(O)c3)O[C@H](CO)[C@H]2OC(=O)/C=C/c2ccc(O)c(O)c2)[C@H](O)[C@H](O)[C@H]1O` [verbascoside], the “protection of C2C12 cells against TNF-α induced injury (survival rate, MMP, ROS)” value in assay [1] (1 to 100 μg/mL) is listed as “could not protect”.
On to TNF-α, for which, in the assay with C2C12 cells (5 ng/mL TNF-α), the “intracellular reactive oxidative stress (ROS)” value is on record as “slightly increased” and the “mitochondrial membrane potential (MMP)” value is “significantly decreased”. In the assay on C2C12 cells (10 ng/mL TNF-α), the “intracellular reactive oxidative stress (ROS)” value was “significantly increased” and the “mitochondrial membrane potential (MMP)” value was “significantly decreased”.
On to echinacoside, for which the “concentration at which the protective effect (survival rate) became significant” value in assay [1] (5 to 500 μg/mL tested) is 100 µg/mL. In assay [1] (5 to 500 μg/mL), the “protective effect on MMP” value is on record as “did not exhibit protective effect” and the “protective effect on ROS” value is “did not exhibit protective effect”. For the same compound, the “protective effect (survival rate)” value in assay [1] (lower concentration within 5 to 500 μg/mL) is given as “not significant”.

The values above are taken from patent US9931367B2, “Uses of cistanche tubulosa extract and isoacteoside in protecting muscle” (SINPHAR TIAN-LI PHARMACEUTICAL CO., LTD. (HANGZHOU), priority 2016, dated 2018).
